{"source": "paper PMC11047580", "about": "“Design and Synthesis of Novel Amino and Acetamidoaurones with Antimicrobial Activities” (Antibiotics, 2024)", "key": {"[1]": {"system": "Klebsiella pneumonia (DSM26371)", "experiment": "MIC assay", "assay_type": "cell-based", "conditions": "two-fold serial dilutions in liquid media, n = 2–3"}, "[2]": {"system": "Fusarium oxysporum (DSM62316)", "experiment": "MIC assay", "assay_type": "cell-based", "conditions": "two-fold serial dilutions in liquid media, n = 2–3"}, "[3]": {"experiment": "Cytotoxic assay (resazurin)", "conditions": "human, HepG2 liver cells"}, "[4]": {"experiment": "Cytotoxic assay (resazurin)", "conditions": "human, Caco-2"}, "P. aeruginosa ATCC9027": {"system": "P. aeruginosa ATCC9027", "experiment": "MIC assay", "assay_type": "cell-based, Pseudomonas aeruginosa", "conditions": "Pseudomonas aeruginosa, ATCC9027; two-fold serial dilutions in liquid media; n = 2–3"}, "[5]": {"system": "Vibrio alginolyticus (DSM2171)", "experiment": "MIC assay", "assay_type": "cell-based", "conditions": "two-fold serial dilutions in liquid media, n = 2–3"}, "[6]": {"system": "Propionibacterium acnes (ATCC6919)", "experiment": "MIC assay", "assay_type": "cell-based", "conditions": "Cutibacterium acnes, two-fold serial dilutions in liquid media, n = 2–3"}, "[7]": {"system": "Francisella tularensis (NR-643)", "experiment": "microbe, parasite or virus in culture", "assay_type": "cell-based", "conditions": "read-out: MIC Francisella tularensis (NR-643)"}, "[8]": {"system": "Acinetobacter baumannii (DSM30007)", "experiment": "MIC assay", "assay_type": "cell-based", "conditions": "two-fold serial dilutions in liquid media, n = 2–3"}, "S. aureus ATCC6538P": {"system": "S. aureus ATCC6538P", "experiment": "MIC assay", "assay_type": "cell-based, Staphylococcus aureus", "conditions": "Staphylococcus aureus, ATCC6538P; two-fold serial dilutions in liquid media; n = 2–3"}, "[9]": {"experiment": "Cytotoxic assay (resazurin)", "conditions": "human, BEAS-2B normal lung epithelial cells"}, "C. albicans DSM10697": {"system": "C. albicans DSM10697", "experiment": "MIC assay", "assay_type": "cell-based, Candida albicans", "conditions": "Candida albicans, DSM10697; two-fold serial dilutions in liquid media; n = 2–3"}, "[10]": {"experiment": "Cytotoxic assay (resazurin)", "conditions": "human, A498 kidney epithelial cells"}, "[11]": {"system": "Brucella melitensis (NR-256)", "experiment": "microbe, parasite or virus in culture", "assay_type": "cell-based", "conditions": "read-out: MIC Brucella melitensis (NR-256)"}}}
{"smiles": "CC(=O)Nc1ccc2c(c1)C(=O)/C(=C/c1cccc(OCc3ccccc3)c1)O2", "note": "[Compound 10, (Z)-N-(2-(3-(benzyloxy)benzylidene)-3-oxo-2,3-dihydrobenzofuran-5-yl)acetamide]", "values": [{"measurement": "MIC", "setting": "[1]; Klebsiella pneumoniae, DSM26371", "value": "> 100", "unit": "µM"}, {"measurement": "MIC", "setting": "[1]", "value": ">100", "unit": "µM"}, {"measurement": "MIC", "setting": "[2]", "value": 25, "unit": "µM"}, {"measurement": "CC50 at 48 h", "setting": "[3]", "value": 472, "unit": "µM"}, {"measurement": "CC50 at 48 h", "setting": "[4]", "value": 200, "unit": "µM"}, {"measurement": "MIC", "setting": "P. aeruginosa ATCC9027", "value": 25, "unit": "µM"}, {"measurement": "MIC", "setting": "[5]", "value": 25, "unit": "µM"}, {"measurement": "MIC", "setting": "[6]", "value": 100, "unit": "µM"}, {"measurement": "MIC", "setting": "[7]", "value": 50, "unit": "µM"}, {"measurement": "MIC", "setting": "[8]", "value": 12.5, "unit": "µM"}, {"measurement": "MIC", "setting": "S. aureus ATCC6538P", "value": 12.5, "unit": "µM"}, {"measurement": "CC50 at 48 h", "setting": "[9]", "value": 169, "unit": "µM"}, {"measurement": "MIC", "setting": "C. albicans DSM10697", "value": 50, "unit": "µM"}, {"measurement": "CC50 at 48 h", "setting": "[10]", "value": 398, "unit": "µM"}, {"measurement": "MIC", "setting": "[11]", "value": 25, "unit": "µM"}]}
